Read-outs that look alike come from different tables or passages of the source.
Assays:
NDM-1 = NDM-1 (Klebsiella pneumoniae, UniProt C7C422); assay: biochemical; format: biochemical; conditions: fluorescence assay, CCF2-FA substrate, 1 pM enzyme, 2 hours at 25° C.; read-out: NDM-1 IC50
How it was run: (§1)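 Inhibitor was mixed with the metallo-β-lactamase and CCF2-FA. After 2 hours at 25° C, fluorescence of the coumarin–fluorescein cephalosporin substrate was read. IC50 was calculated with a 4-parameter fit.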

IMP-1 = IMP-1 (Serratia marcescens, UniProt P52699); assay: biochemical; format: biochemical; conditions: fluorescence assay, CCF2-FA substrate, 2 pM enzyme, 2 hours at 25° C.; read-out: IMP-1 IC50
How it was run: as §1

VIM-1 = VIM-1 (Pseudomonas aeruginosa (strain ATCC 15692 / DSM 22644 / CIP 104116 / JCM 14847 / LMG 12228 / 1C / PRS 101 / PAO1), UniProt A0A0F7KYQ8); assay: biochemical; conditions: CCF2-FA substrate, 30 pM enzyme, 2 hours at 25° C.
How it was run: as §1

[1] = test system: Escherichia coli expressing NDM-1 (CLB30005, CLB30016); format: cell-based; conditions: NDM-1 strain, with imipenem 1 μg/ml, 95% inhibition of growth
How it was run: (§2)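 Imipenem 1 μg/ml + inhibitor; MBL-expressing clinical strains in 1.1×CAMHB, inoculum from saline suspension diluted 1:100; 35° C, 22–24 h; absorbance read-out.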

[2] = test system: Klebsiella pneumoniae expressing VIM-1 (IHMA599644); format: cell-based; conditions: VIM-1 strain IHMA599644, with imipenem 1 μg/ml, 95% inhibition of growth
How it was run: as §2

[3] = test system: Serratia marcescens expressing IMP-1 (CL5741); format: cell-based; conditions: IMP-1 strain CL5741, with imipenem 1 μg/ml, 95% inhibition of growth
How it was run: as §2

[4] = test system: Pseudomonas aeruginosa efflux+ (MB9798), IMP-1; format: cell-based; design: Concentration of metallo-β-lactamase inhibitor which restores susceptibility of efflux + (MB9798) strain to imipenem: unit not given here; conditions: efflux+ MB9798; imipenem at 2 μg/mL; in the presence of a class A, C, D serine β-lactamase inhibitor closely related to relebactam
How it was run: (§3)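 Steps: add fixed imipenem and/or ceftazidime (usually CLSI breakpoint) and fixed AmpC-directed class A/C inhibitor to microbroth MIC wells; titrate MBL inhibitor; record concentration regaining susceptibility for each PAO1-derived strain; divide efflux+ by efflux− value.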

[5] = test system: Pseudomonas aeruginosa MB9798 vs MB9799; conditions: fold difference between efflux+ (MB9798) and efflux− (MB9799) strains; imipenem at 2 μg/mL
How it was run: as §3

[6] = test system: Pseudomonas aeruginosa efflux− (MB9799), IMP-1; format: cell-based; conditions: efflux− MB9799; imipenem at 2 μg/mL; in the presence of a class A, C, D serine β-lactamase inhibitor closely related to relebactam
How it was run: as §3

[7] = fluorescence assay, read-out: VIM-1 IC50

Chain of IMP-1 (P52699 whole entry, looked up, species assumed): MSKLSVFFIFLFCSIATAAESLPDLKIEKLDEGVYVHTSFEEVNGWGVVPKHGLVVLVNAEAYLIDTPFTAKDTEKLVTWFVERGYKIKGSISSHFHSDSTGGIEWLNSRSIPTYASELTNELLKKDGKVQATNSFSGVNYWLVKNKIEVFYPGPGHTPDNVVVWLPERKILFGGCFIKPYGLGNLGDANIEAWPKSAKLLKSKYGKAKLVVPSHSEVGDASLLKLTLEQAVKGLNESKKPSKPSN
Chain of NDM-1 (C7C422 whole entry, looked up, species assumed): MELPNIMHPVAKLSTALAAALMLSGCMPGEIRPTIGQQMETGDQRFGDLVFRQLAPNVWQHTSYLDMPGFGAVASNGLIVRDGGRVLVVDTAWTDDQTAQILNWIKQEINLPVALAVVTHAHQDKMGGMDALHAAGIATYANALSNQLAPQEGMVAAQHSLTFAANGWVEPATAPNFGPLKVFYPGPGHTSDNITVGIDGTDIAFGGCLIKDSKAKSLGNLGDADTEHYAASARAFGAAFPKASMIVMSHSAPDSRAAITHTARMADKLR

SMILES	IC50 (NDM-1)	IC50 (IMP-1)	IC50 (VIM-1; VIM-1 IC50, fluorescence assay)	Escherichia coli MITC95 [1]	Klebsiella pneumoniae MITC95 [2]	Serratia marcescens MITC95 [3]	Concentration of metallo-β-lactamase inhibitor which restores susceptibility of efflux + (MB9798) strain to imipenem [4]	Efflux ratio [5]	Concentration of metallo-β-lactamase inhibitor which restores susceptibility of efflux − (MB9799) strain to imipenem [6]	IC50 (VIM-1; [7])
Nc1nc2c(-c3ccc(S(=O)(=O)N[C@@H]4CNC[C@H]4N)c(S(N)(=O)=O)c3-c3nn[nH]n3)cccc2[nH]1 [Example 424]	0.0869 nM	0.814 nM	0.301 nM	0.7813 µM	1.563 µM	1.563 µM	1.563	1.00	1.563	
NC[C@@H]1C[C@@H](NS(=O)(=O)c2ccc(-c3cccc4[nH]c(N)nc34)c(-c3nn[nH]n3)c2S(N)(=O)=O)CN1 [Example 425, 4-(2-amino-1H-benzo[d]imidazol-4-yl)-N^1-((3R,5S)-5-(aminomethyl)pyrrolidin-3-yl)-3-(2H-tetrazol-5-yl)benzene-1,2-disulfonamide]	0.0419 nM	0.886 nM		0.7813 µM	3.125 µM	3.125 µM	1.563	1.00	1.563	0.16 nM
NC[C@@H](CO)NS(=O)(=O)c1ccc(-c2cccc3[nH]c(N)nc23)c(-c2nnn[nH]2)c1S(N)(=O)=O [Example 426, (S)-4-(2-Amino-1H-benzo[d]imidazol-4-yl)-N^1-(1-amino-3-hydroxypropan-2-yl)-3-(1H-tetrazol-5-yl)benzene-1,2-disulfonamide]	0.0322 nM	0.273 nM		0.3906 µM	1.563 µM	0.7813 µM	0.3906	0.50	0.7813	0.168 nM
NC[C@H](CO)NS(=O)(=O)c1ccc(-c2cccc3nc(N)[nH]c23)c(-c2nn[nH]n2)c1S(N)(=O)=O [Example 427]	0.221 nM	2.61 nM		0.3906 µM	1.563 µM	0.7813 µM	0.7813	1.00	0.7813	0.547 nM
Nc1nc(-c2cccc(-c3ccc(S(=O)(=O)N[C@@H]4CCNC4)c(S(N)(=O)=O)c3-c3nn[nH]n3)c2)c[nH]1 [Example 428]	0.0473 nM	0.407 nM	0.133 nM	0.3906 µM	1.563 µM	0.7813 µM	0.7813	1.00	0.7813	
NCC(CN)NS(=O)(=O)c1ccc(-c2cccc3[nH]c(N)nc23)c(-c2nn[nH]n2)c1S(N)(=O)=O [Example 429]	0.0819 nM	0.489 nM		0.5208 µM	1.563 µM	1.563 µM	0.7813	1.00	0.7813	0.228 nM
NCC(CN)NS(=O)(=O)c1ccc(-c2cccc3ccc(N)nc23)c(-c2nn[nH]n2)c1S(N)(=O)=O [Example 430]	0.0325 nM	0.102 nM		1.172 µM	1.563 µM	1.563 µM	1.563	1.00	1.563	0.103 nM
NCCNCc1sc(N)nc1-c1cccc(-c2ccc(S(=O)(=O)N[C@@H]3CCNC3)c(S(N)(=O)=O)c2-c2nnn[nH]2)c1 [Example 433]	0.51 nM	1.33 nM		0.7813 µM	1.563 µM	1.563 µM	1.563	2.00	0.7813	0.404 nM
NC[C@H](N)CNS(=O)(=O)c1ccc(-c2cccc(-c3c[nH]c(N)n3)c2)c(-c2nn[nH]n2)c1S(N)(=O)=O [Example 434]	0.2 nM	1.53 nM		0.7813 µM	1.563 µM	1.563 µM	1.563	2.00	0.7813	0.337 nM
NCC(CN)NS(=O)(=O)c1ccc(-c2cccc(-c3c[nH]c(N)n3)c2)c(-c2nn[nH]n2)c1S(N)(=O)=O [Example 435]	0.46 nM	1.78 nM		1.563 µM	3.125 µM	3.125 µM	3.125	2.00	1.563	1.21 nM
NCC(CN)NS(=O)(=O)c1ccc(-c2cccc3sc(N)nc23)c(-c2nn[nH]n2)c1S(N)(=O)=O [Example 436]	0.0246 nM	0.103 nM		0.7813 µM	1.563 µM	1.563 µM	0.7813	1.00	0.7813	0.116 nM
NCC(CN)NS(=O)(=O)c1ccc(-c2ccnc(-c3cnc(N)[nH]3)c2)c(-c2nnn[nH]2)c1S(N)(=O)=O [Example 437, 4-(2-(2-Amino-1H-imidazol-5-yl)pyridin-4-yl)-N^1-(1,3-diaminopropan-2-yl)-3-(1H-tetrazol-5-yl)benzene-1,2-disulfonamide]	1.18 nM	2.41 nM	0.952 nM	0.7813 µM	3.125 µM	3.125 µM	1.563	2.00	0.7813	
NCC(CN)NS(=O)(=O)c1ccc(-c2cccc(-c3cnc(N)[nH]3)n2)c(-c2nnn[nH]2)c1S(N)(=O)=O [Example 438, 4-(6-(2-Amino-1H-imidazol-5-yl)pyridin-2-yl)-N^1-(1,3-diaminopropan-2-yl)-3-(1H-tetrazol-5-yl)benzene-1,2-disulfonamide]	2.04 nM	17.9 nM	3.91 nM	3.125 µM	3.125 µM	3.125 µM	6.25	2.00	3.125	
